The source of these data is ChEMBL document CHEMBL1201862, “PubChem BioAssay data set” (2004).

What all share (assay): NCI tumour cell line growth inhibition, 48 h
The subject of experiment [1] is 786-0.
Experiment [2] concerns HCT-116.
In experiment [3] the test system is HL-60.
Experiment [4] relates to HOP-62.
The subject of experiment [5] is HT-29.
The test system of experiment [6] is IGROV-1.
Experiment [7] deals with MOLT-4.
The test system of experiment [8] is OVCAR-3.
Experiment [9] deals with SF-268.
In experiment [10] the test system is SN12C.
Experiment [11] relates to UACC-257.
In experiment [12] the test system is COLO 205.
In experiment [13] the test system is NCI-H522.
For experiment [14], the system named is SR.

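Briefly, cells in 96-well plates were exposed to five compound concentrations for 48 h, and endpoints were estimated by linear interpolation. At the GI50, growth is halved.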 Activity calls are given as the source filed them. No stated cut-off is given here; in the data, active = GI50 up to about 1.1 µM and inactive = higher.

Take `c1cncc(C2N3CCCCC3[C@@H]3c4[nH]c5ccccc5c4CCN23)c1` (stereo partly drawn): the GI50 in experiment [1], in experiment [2], in [3], in experiment [4], in [5] and in experiment [6] was > 100 µM (inactive) in each case. The GI50 in experiment [7], in [8], in experiment [9], in [10] and in experiment [11] was > 100 µM (inactive) in each case.

Regarding `Cc1cc2c(=O)cc(-c3ccc(Cl)c(Cl)c3)oc2c(C(=O)O)c1C`, the GI50 in [1], in experiment [12], in experiment [2], in experiment [5], in [6] and in experiment [7] was > 100 µM (inactive) each time. For the same molecule, the GI50 in [13], in [8], in [9], in experiment [10] and in experiment [11] was > 100 µM (inactive) each time.

`CCC1=CCC(P(=O)(c2ccccc2)c2ccccc2)CC1C` (stereo not drawn): the GI50 in experiment [1] is 39 µM (inactive); in experiment [12], 35 µM (inactive); in experiment [2], 22.9 µM (inactive); in experiment [3], 22.2 µM (inactive); in experiment [5] it was > 100 µM (inactive); in experiment [6], 47.1 µM (inactive). Also, the GI50 in [7] is 20.5 µM (inactive); in experiment [13], 20.7 µM (inactive); in [8], 35.4 µM (inactive); in experiment [9], 35.2 µM (inactive); in [10], 44.7 µM (inactive); in experiment [11], 74.5 µM (inactive).

With `CN1C(=O)C(C)(C)NS1(=O)=O`, the GI50 in experiment [1], in experiment [12], in [2], in experiment [3], in experiment [4] and in experiment [5] was > 100 µM (inactive) throughout. For the same molecule, the GI50 in [6], in experiment [7], in [8], in experiment [9], in experiment [10] and in experiment [11] was > 100 µM (inactive) in each case.

On to `O=C(CC1(O)C(=O)Nc2ccccc21)c1cccc(O)c1` (stereo not drawn), for which the GI50 in experiment [1], in experiment [12], in [2], in experiment [3], in experiment [4] and in experiment [5] was > 100 µM (inactive) throughout. For the same molecule, the GI50 in experiment [6], in [7], in [13], in [8], in experiment [9] and in experiment [10] was > 100 µM (inactive) in each case. In addition, the GI50 in experiment [11] is > 100 µM (inactive).

Turning to `C[C@]12CCC(=O)C(O)=C1CC[C@@H]1C2CC[C@]2(C)NC(=O)CCC12` (stereo partly drawn), the GI50 in [1], in experiment [12], in experiment [2], in [3], in experiment [4] and in experiment [5] was > 100 µM (inactive) in each case. Besides, the GI50 in experiment [6], in [7], in [13], in experiment [8], in experiment [9] and in [10] was > 100 µM (inactive) each time. Further, the GI50 in experiment [11] is > 100 µM (inactive).

As to `N/N=C1\C(=O)N(C2CCCCCC2)C(=O)C1C(=O)NC1CCCCCC1` (stereo not drawn), the GI50 is 29.6 µM (inactive) in experiment [1]; 35.1 µM (inactive) in experiment [12]; 19.8 µM (inactive) in experiment [3]; > 10 µM (inactive) in experiment [4]; 32.1 µM (inactive) in experiment [5]; 38 µM (inactive) in experiment [6]. Besides, the GI50 was 22 µM (inactive) in [7]; 23.2 µM (inactive) in experiment [13]; 32.4 µM (inactive) in [8]; 36.9 µM (inactive) in experiment [9]; 27.9 µM (inactive) in experiment [10]; 55.3 µM (inactive) in experiment [11].

`Cc1cc(N(CCC#N)CCC#N)ccc1/C=C(\NC(=O)/C=C/c1ccccc1)NC(=O)Nc1ccc(Cl)cc1`: the GI50 in experiment [1] is 51.6 µM (inactive); in [12], > 100 µM (inactive); in experiment [2], 23.6 µM (inactive); in [3] it was 37.5 µM (inactive); in [5] it was > 100 µM (inactive); in experiment [6] it was 38.8 µM (inactive). The GI50 is > 100 µM (inactive) in [7]; 80.5 µM (inactive) in [8]; 62.2 µM (inactive) in experiment [9]; > 100 µM (inactive) in experiment [10]; > 100 µM (inactive) in experiment [11].

On to `COC(=O)[C@@H]1c2[nH]c3ccccc3c2C[C@@H]2c3ccccc3NC(=O)[C@@H]21`, for which the GI50 in experiment [1] is 42.8 µM (inactive); in experiment [12] it was > 82.2 µM (inactive); in experiment [2], 37.3 µM (inactive); in experiment [3], > 100 µM (inactive); in experiment [4] it was 14.3 µM (inactive); in experiment [5], > 100 µM (inactive). In addition, the GI50 in experiment [6] was > 100 µM (inactive); in experiment [7] it was > 100 µM (inactive); in experiment [13], > 100 µM (inactive); in experiment [8], > 53.6 µM (inactive); in experiment [9] it was > 31.6 µM (inactive); in experiment [10] it was > 78.3 µM (inactive). Besides, in experiment [11], the GI50 is > 85.1 µM (inactive).

Turning to `COC1=CC(=O)C2[C@H]3Cc4ccccc4[C@H]3C2(C)C1=O` (stereo partly drawn), the GI50 in [1] was > 100 µM (inactive); in experiment [12], > 100 µM (inactive); in experiment [4], > 100 µM (inactive); in experiment [5] it was > 100 µM (inactive); in experiment [6], > 100 µM (inactive); in experiment [7], 91.6 µM (inactive). For the same molecule, the GI50 is 68.4 µM (inactive) in experiment [13]; > 100 µM (inactive) in experiment [8]; > 100 µM (inactive) in experiment [9]; 70.3 µM (inactive) in [14]; > 100 µM (inactive) in [11].

As for `CCNC(=O)O/N=C1\CCC2[C@@H]3CC=C4C[C@@H](OC(=O)NCC)CC[C@]4(C)C3CC[C@]12C` (stereo partly drawn), the GI50 in experiment [1] is 2.91 µM (inactive); in [12], 0.387 µM (active); in [2], 0.57 µM (active); in [4], 22.3 µM (inactive); in experiment [5] it was 2.86 µM (inactive); in experiment [6], 4.43 µM (inactive). Further, the GI50 was 1.05 µM (active) in experiment [7]; 1.57 µM (inactive) in experiment [13]; 2.21 µM (inactive) in experiment [8]; 2.94 µM (inactive) in experiment [9]; 2.65 µM (inactive) in experiment [10]; 0.422 µM (active) in [11].

For the molecule `COc1ccc2oc3c(OC)c(OC)c(OC)cc3c(=O)c2c1`, the GI50 in [1] was > 100 µM (inactive); in experiment [12], > 100 µM (inactive); in [2] it was > 100 µM (inactive); in experiment [4] it was 50.2 µM (inactive); in experiment [5], > 100 µM (inactive); in [6] it was > 100 µM (inactive). In addition, the GI50 in experiment [7] is > 100 µM (inactive); in experiment [13] it was 21.8 µM (inactive); in experiment [9], > 100 µM (inactive); in experiment [10], > 100 µM (inactive); in experiment [11] it was > 100 µM (inactive).

As to `CC1=[N+]([O-])c2ccccc2C(=O)C1=O`, the GI50 is > 100 µM (inactive) in experiment [1]; > 100 µM (inactive) in experiment [12]; 48 µM (inactive) in [2]; 40.3 µM (inactive) in [3]; > 100 µM (inactive) in experiment [4]; > 100 µM (inactive) in experiment [5]. Also, the GI50 in [6] is > 100 µM (inactive); in experiment [7], 43.2 µM (inactive); in experiment [13], 23.3 µM (inactive); in experiment [8] it was 29.2 µM (inactive); in [9], 42.2 µM (inactive); in experiment [10] it was > 100 µM (inactive). For the same molecule, the GI50 in experiment [11] is 65.8 µM (inactive).

With `CCCN(CCC)c1c([N+](=O)[O-])cc(C(=O)N(C)C)cc1[N+](=O)[O-]`, the GI50 in experiment [1] was > 100 µM (inactive); in experiment [12], 76.4 µM (inactive); in [2], 43.4 µM (inactive); in experiment [3], 15.6 µM (inactive); in [5] it was > 100 µM (inactive); in [6] it was 69.2 µM (inactive). Further, the GI50 was 41 µM (inactive) in experiment [7]; 62.1 µM (inactive) in experiment [13]; 75 µM (inactive) in experiment [8]; > 100 µM (inactive) in experiment [9]; > 100 µM (inactive) in experiment [10]; 35.4 µM (inactive) in experiment [11].

Consider `CCOC(=O)C(C)(c1cn(C)c2ccccc12)c1cn(C)c2ccccc12`, for which the GI50 in experiment [1] was 69.2 µM (inactive); in [2] it was 34.3 µM (inactive); in experiment [3], > 100 µM (inactive); in experiment [4], 76.2 µM (inactive); in experiment [5] it was > 100 µM (inactive); in experiment [6] it was > 100 µM (inactive). In addition, the GI50 in experiment [7] is > 100 µM (inactive); in [8] it was 45.8 µM (inactive); in experiment [11] it was > 100 µM (inactive).

In the case of `NC(=O)COc1c(Br)cc(Br)cc1Br`, the GI50 in experiment [1], in experiment [12], in experiment [2], in [4], in experiment [5] and in experiment [7] was > 100 µM (inactive) in each case. Moreover, the GI50 in experiment [13], in experiment [8], in [9], in experiment [10], in [14] and in experiment [11] was > 100 µM (inactive) in each case.
